Measured values published in patent publication US20100113597A1, “PHARMACEUTICAL COMPOSITION FOR PREVENTION OF PROGRESS OF INTESTINAL CONSTRICTION ASSOCIATED WITH CROHN'S DISEASE” (priority 2007, published 2010).
Entries after “also recorded” stand apart in the source; their conditions may differ.

Legend:
[1] = test system: intestinal stricture associated with Crohn's disease; test: Effect of tranilast on progression of intestinal stricture in Crohn's disease patients, randomized against a group not given tranilast; assay type: in vivo, human (Crohn's disease patients)
Experimental: In 24 Crohn's disease patients with non-symptomatic intestinal stricture, the effect by tranilast on the progression of intestinal stricture associated with Crohn's disease was evaluated and compared between one group administered tranilast and another group not administered tranilast. There was no significant difference in backgrounds of the patients between the groups. The 24 patients were randomly divided into two groups consisting of a group administered tranilast (12 cases) and a group not administered tranilast (12 cases). […] The primary endpoint was a cumulative non-symptomatic stricture rate which was a rate of cases wherein severe symptomatic intestinal stricture requiring balloon dilatation or surgery occurred. In addition, the diameters of the stricture at the beginning of observation (basal diameter) and at the end of observation (final diameter) were measured. The secondary endpoint was a monthly progression rate of the stricture obtained from the rate of the final diameter relative to the basal diameter.

[2] = test system: Crohn's disease; settings: single case; tranilast with enteral nutrients, low residue diet and mepenzolate bromide; cited from earlier work

COc1ccc(C=CC(=O)Nc2ccccc2C(=O)O)cc1OC [tranilast, N-(3,4-dimethoxycinnamoyl)anthranilic acid]
monthly progression rate of the stricture ([1]; from the final diameter relative to the basal diameter, −0.86% in the group not given tranilast): -0.48%
average diameter of the stricture at the end of observation (final diameter) ([1]; group administered tranilast 200 mg three times daily, median observation 782 days): 5.60 mm
average diameter of the stricture at the beginning of observation (basal diameter) ([1]; group administered tranilast, baseline): 6.40 mm
cases withdrawn due to discontinued administration because of a reduced peripheral white blood cell count ([1]; of 12 cases, tranilast 200 mg three times daily): 1 case
number of cases who required balloon dilatation due to severe intestinal stricture ([1]; tranilast 200 mg three times daily orally, 12 cases, 5 cases in the group not given tranilast): 1 case
incidence of intestinal obstruction/stricture symptoms due to intestinal stricture (cumulative non-symptomatic stricture rate) ([1]; tranilast 600 mg per day versus the group not given tranilast, p=0.0034): significantly inhibited; also recorded: significantly low
period maintained without exacerbation of symptoms of Crohn's disease [2]: 3 years
